Data on 26 compounds can be found in patent US7351706B2, “Indol-3-yl-carbonyl-spiro-piperidine derivatives” (Hoffmann-La Roche Inc., priority 2006, dated 2008).

The target of the test is T1, human V1a receptor (Homo sapiens, UniProt P37288).
T1 construct: expressed in transfected cells; host or cells: HEK293 cells, transiently transfected; membranes prepared
Kind of test: human V1a receptor binding (3H-Vasopressin SPA, HEK293 membranes). The settings on record: 3H-Vasopressin displacement, membranes of HEK293 cells transiently transfected with human V1a; Ki by Cheng-Prussoff. How it is done: The human V1a receptor was cloned by RT-PCR from total human liver RNA. The coding sequence was subcloned in an expression vector after sequencing to confirm the identity of the amplified sequence. […] Cell membranes were prepared from HEK293 cells transiently transfected with the expression vector and grown in 20 liter fermenters with the following protocol.
50 g of cells are resuspended in 30 ml freshly prepared ice cold Lysis buffer (50 mM HEPES, 1 mM EDTA, 10 mM MgCl2 adjusted to pH=7.4+complete cocktail of protease inhibitor (Roche Diagnostics)). Homogenized with Polytron for 1 min and sonicated on ice for 2×2 minutes at 80% intensity (Vibracell sonicator). The preparation is centrifuged 20 min at 500 g at 4° C., the pellet is discarded and the supernatant centrifuged 1 hour at 43'000 g at 4° C. (19'000 rpm). The pellet is resuspended in 12.5 ml Lysis buffer+12.5 ml Sucrose 20% and homogenized using a Polytron for 1-2 min. The protein concentration is determined by the Bradford method and aliquots are stored at −80° C. until use. For binding studies 60 mg Yttrium silicate SPA beads (Amersham) are mixed with an aliquot of membrane in binding buffer (50 mM Tris, 120 mM NaCl, 5 mM KCl, 2 mM CaCl2, 10 mM MgCl2) for 15 minutes with mixing. 50 ul of bead/membrane mixture is then added to each well of a 96 well plate, followed by 50 ul of 4 nM 3H-Vasopressin (American Radiolabeled Chemicals). For total binding measurement 100 ul of binding buffer are added to the respective wells, for non-specific binding 100 ul of […] cold vasopressin and for compound testing 100 ul of a serial dilution of each compound in 2% DMSO. The plate is incubated 1 h at room temperature, centrifuged 1 min at 1000 g and counted on a Packard Top-Count. Non-specific binding counts are subtracted from each well and data is normalized to the maximum specific binding set at 100%. To calculate an IC 50 the curve is fitted using a non-linear regression model (XLfit) and the Ki is calculated using the Cheng-Prussoff equation.

In general, Ki refers to a dissociation constant, usually derived from enzyme kinetics or from competition with a known ligand.

T1 sequence (P37288 whole entry): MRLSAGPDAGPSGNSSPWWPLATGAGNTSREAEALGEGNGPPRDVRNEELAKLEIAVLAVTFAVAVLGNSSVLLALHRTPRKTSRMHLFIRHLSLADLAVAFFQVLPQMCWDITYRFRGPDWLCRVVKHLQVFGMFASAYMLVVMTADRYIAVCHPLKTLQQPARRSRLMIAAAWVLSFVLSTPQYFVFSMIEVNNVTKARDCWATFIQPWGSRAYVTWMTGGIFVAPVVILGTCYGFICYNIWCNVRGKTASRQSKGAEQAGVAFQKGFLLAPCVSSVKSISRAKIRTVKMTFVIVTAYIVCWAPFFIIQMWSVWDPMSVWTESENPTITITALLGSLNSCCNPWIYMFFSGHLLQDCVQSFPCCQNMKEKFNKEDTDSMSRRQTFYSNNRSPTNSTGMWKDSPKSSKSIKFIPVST

The compound `O=C1Nc2ccccc2C2(CCN(C(=O)c3c[nH]c4cc(Cl)ccc34)CC2)O1` [Example 1, 1′-[(6-Chloro-1H-indol-3-yl)carbonyl]spiro[3,1-benzoxazine-4,4′-piperidin]-2(1H)-one] showed an inhibition constant Ki of 32 nM.

With `O=C1CC2(CCN(C(=O)c3c[nH]c4ccccc34)CC2)c2cc(Br)ccc2N1` [Example 2, 6′-Bromo-1-(1H-indol-3-ylcarbonyl)-1′H-spiro[piperidine-4,4′-quinolin]-2′(3′H)-one], the inhibition constant (Ki) amounted to 2050 nM.

Compound `CN(C)CCN1C(=O)OC2(CCN(C(=O)c3c[nH]c4cc(Cl)ccc34)CC2)c2cc(Cl)ccc21` [Example 3, 6-Chloro-1′-[(6-chloro-1H-indol-3-yl)carbonyl]-1-[2-(dimethylamino)ethyl]spiro[3,1-benzoxazine-4,4′-piperidin]-2(1H)-one] registered an inhibition constant (Ki) of 402 nM.

Consider `O=C1Nc2ccc(Cl)cc2C2(CCN(C(=O)c3c[nH]c4cc(Cl)ccc34)CC2)O1` [Example 4, 6-Chloro-1′-[(6-chloro-1H-indol-3-yl)carbonyl]spiro[3,1-benzoxazine-4,4′-piperidin]-2(1H)-one], for which the inhibition constant (Ki) was 310 nM.

`O=C1Nc2ccccc2C2(CCN(C(=O)c3cn(-c4cc(F)cc(F)c4)c4cc(Cl)ccc34)CC2)O1` [Example 5, 1′-{[6-Chloro-1-(3,5-difluorophenyl)-1H-indol-3-yl]carbonyl}spiro[3,1-benzoxazine-4,4′-piperidin]-2(1H)-one] gave an inhibition constant Ki of 130 nM.

Regarding `O=C1Nc2ccccc2C2(CCN(C(=O)c3cn(C(=O)c4cccc(F)c4)c4cc(Cl)ccc34)CC2)O1` [Example 6, 1′-{[6-Chloro-1-(3-fluorobenzoyl)-1H-indol-3-yl]carbonyl}spiro[3,1-benzoxazine-4,4′-piperidin]-2(1H)-one], the inhibitory constant (Ki) came to 118 nM.

On to `O=C1Nc2ccccc2C2(CCN(C(=O)c3cn(C(=O)c4ccccc4F)c4cc(Cl)ccc34)CC2)O1` [Example 7, 1′-{[6-Chloro-1-(2-fluorobenzoyl)-1H-indol-3-yl]carbonyl}spiro[3,1-benzoxazine-4,4′-piperidin]-2(1H)-one], for which the Ki was determined as 117 nM.

Regarding `O=C1Nc2ccccc2C2(CCN(C(=O)c3cn(C(=O)c4cccc(F)c4F)c4cc(Cl)ccc34)CC2)O1` [Example 8, 1′-{[6-Chloro-1-(2,3-difluorobenzoyl)-1H-indol-3-yl]carbonyl}spiro[3,1-benzoxazine-4,4′-piperidin]-2(1H)-one], the affinity, expressed as Ki, was 136 nM.

With `O=C1Nc2ccccc2C2(CCN(C(=O)c3cn(Cc4cc(F)cc(F)c4)c4cc(Cl)ccc34)CC2)O1` [Example 10, 1′-{[6-Chloro-1-(3,5-difluorobenzyl)-1H-indol-3-yl]carbonyl}spiro[3,1-benzoxazine-4,4′-piperidin]-2(1H)-one], the affinity corresponds to a Ki of 3 nM.

Regarding `O=C1Nc2ccccc2C2(CCN(C(=O)c3cn(Cc4cccc(F)c4)c4cc(Cl)ccc34)CC2)O1` [Example 11, 1′-{[6-Chloro-1-(3-fluorobenzyl)-1H-indol-3-yl]carbonyl}spiro[3,1-benzoxazine-4,4′-piperidin]-2(1H)-one], the affinity corresponds to a Ki of 5 nM.

Turning to `O=C1Nc2ccccc2C2(CCN(C(=O)c3cn(CC(=O)c4cccc(F)c4)c4cc(Cl)ccc34)CC2)O1` [Example 12, 1′-({6-Chloro-1-[2-(3-fluorophenyl)-2-oxoethyl]-1H-indol-3-yl}carbonyl)spiro[3,1-benzoxazine-4,4′-piperidin]-2(1H)-one], the inhibition constant (Ki) turned out to be 7 nM.

For `O=C1Nc2ccccc2C2(CCN(C(=O)c3cn(CC(=O)c4ccc(F)c(F)c4)c4cc(Cl)ccc34)CC2)O1` [Example 13, 1′-({6-Chloro-1-[2-(3,4-difluorophenyl)-2-oxoethyl]-1H-indol-3-yl}carbonyl)spiro[3,1-benzoxazine-4,4′-piperidin]-2(1H)-one], the affinity, expressed as Ki, was 8 nM.

`O=C1Nc2ccccc2C2(CCN(C(=O)c3cn(CC(=O)N4CCCCC4)c4cc(Cl)ccc34)CC2)O1` [Example 15, 1′-{[6-Chloro-1-(2-oxo-2-piperidin-1-ylethyl)-1H-indol-3-yl]carbonyl}spiro[3,1-benzoxazine-4,4′-piperidin]-2(1H)-one] had an inhibition constant (Ki) of 7 nM.

For the compound `O=C1Nc2ccccc2C2(CCN(C(=O)c3cn(CC(=O)N4CCOCC4)c4cc(Cl)ccc34)CC2)O1` [Example 16, 1′-{[6-Chloro-1-(2-morpholin-4-yl-2-oxoethyl)-1H-indol-3-yl]carbonyl}spiro[3,1-benzoxazine-4,4′-piperidin]-2(1H)-one], the affinity corresponds to a Ki of 20 nM.

`CN(C)C(=O)Cn1cc(C(=O)N2CCC3(CC2)OC(=O)Nc2ccccc23)c2ccc(Cl)cc21` [Example 17, 2-{6-Chloro-3-[(2-oxo-1,2-dihydro-1′H-spiro[3,1-benzoxazine-4,4′-piperidin]-1′-yl)carbonyl]-1H-indol-1-yl}-N,N-dimethylacetamide] registered an inhibition constant (Ki) of 5.7 nM.

Compound `CCN(CC)C(=O)Cn1cc(C(=O)N2CCC3(CC2)OC(=O)Nc2ccccc23)c2ccc(Cl)cc21` [Example 18, 2-{6-Chloro-3-[(2-oxo-1,2-dihydro-1H-spiro[3,1-benzoxazine-4,4′-piperidin]-1′-yl)carbonyl]-1H-indol-1-yl}-N,N-diethylacetamide] returned a Ki of 6 nM.

`O=C1Nc2ccccc2C2(CCN(C(=O)c3cn(C(=O)N4CCCCC4)c4cc(Cl)ccc34)CC2)O1` [Example 19, 1′-{[6-Chloro-1-(piperidin-1-ylcarbonyl)-1H-indol-3-yl]carbonyl}spiro[3,1-benzoxazine-4,4′-piperidin]-2(1H)-one] returned an inhibitory constant (Ki) of 46 nM.

The compound `CC(C)(C)OC(=O)Cn1cc(C(=O)N2CCC3(CC2)OC(=O)Nc2ccccc23)c2ccc(Cl)cc21` [Example 20, tert-Butyl {6-chloro-3-[(2-oxo-1,2-dihydro-1′H-spiro[3,1-benzoxazine-4,4′-piperidin]-1′-yl)carbonyl]-1H-indol-1-yl}acetate] showed an inhibition constant Ki of 10 nM.

In the case of `O=C1Nc2ccccc2C2(CCN(C(=O)c3cn(C(=O)c4cc(F)cc(F)c4)c4cc(Cl)ccc34)CC2)O1` [Example 21, 1′-{[6-Chloro-1-(3,5-difluorobenzoyl)-1H-indol-3-yl]carbonyl}spiro[3,1-benzoxazine-4,4′-piperidin]-2(1H)-one], affinity was put at a Ki of 88 nM.

The compound `O=C1Nc2ccccc2C2(CCN(C(=O)c3cn(CC(=O)c4cc(F)cc(F)c4)c4cc(Cl)ccc34)CC2)O1` [Example 22, 1′-({6-Chloro-1-[2-(3,5-difluorophenyl)-2-oxoethyl]-1H-indol-3-yl}carbonyl)spiro[3,1-benzoxazine-4,4′-piperidin]-2(1H)-one] came in with a Ki of 200 nM.

`O=C1Nc2ccccc2C2(CCN(C(=O)c3cn(CC(=O)c4ccccc4F)c4cc(Cl)ccc34)CC2)O1` [Example 23, 1′-({6-Chloro-1-[2-(2-fluorophenyl)-2-oxoethyl]-1H-indol-3-yl}carbonyl)spiro[3,1-benzoxazine-4,4′-piperidin]-2(1H)-one] returned a Ki of 2 nM.

On to `N#CCCn1cc(C(=O)N2CCC3(CC2)OC(=O)Nc2ccccc23)c2ccc(Cl)cc21` [Example 24, 3-{6-Chloro-3-[(2-oxo-1,2-dihydro-1′H-spiro[3,1-benzoxazine-4,4′-piperidin]-1′-yl)carbonyl]-1H-indol-1-yl}propanenitrile], for which the affinity corresponds to a Ki of 10 nM.

`CC(C#N)n1cc(C(=O)N2CCC3(CC2)OC(=O)Nc2ccccc23)c2ccc(Cl)cc21` (centres unmarked) [Example 25, 2-{6-Chloro-3-[(2-oxo-1,2-dihydro-1′H-spiro[3,1-benzoxazine-4,4′-piperidin]-1′-yl)carbonyl]-1H-indol-1-yl}propanenitrile] displayed an inhibition constant (Ki) of 28 nM.

`O=C1Nc2ccccc2C2(CCN(C(=O)c3cn(CC(=O)c4ccccn4)c4cc(Cl)ccc34)CC2)O1` [Example 26, 1′-{[6-Chloro-1-(2-oxo-2-pyridin-2-ylethyl)-1H-indol-3-yl]carbonyl}spiro[3,1-benzoxazine-4,4′-piperidin]-2(1H)-one] showed a Ki of 8 nM.

As to `Cc1oc(-c2ccccc2)nc1C(=O)Cn1cc(C(=O)N2CCC3(CC2)OC(=O)Nc2ccccc23)c2ccc(Cl)cc21` [Example 27, 1′-({6-Chloro-1-[2-(5-methyl-2-phenyl-1,3-oxazol-4-yl)-2-oxoethyl]-1H-indol-3-yl}carbonyl)spiro[3,1-benzoxazine-4,4′-piperidin]-2(1H)-one], the Ki was 29 nM.

On to `CNC(=O)Cn1cc(C(=O)N2CCC3(CC2)CNC(=O)c2ccccc23)c2ccc(Cl)cc21` [Example 28, 2-{6-chloro-3-[(1-oxo-2,3-dihydro-1H, 1′H-spiro[isoquinoline-4,4′-piperidin]-1′-yl)carbonyl]-1H-indol-1-yl}-N-methylacetamide], for which the Ki came to 166 nM.
